Test results published in patent publication US10131652B2, “Pyrimidinyloxy benzene derivatives as herbicides” (E. I. DU PONT DE NEMOURS AND COMPANY, priority 2014, dated 2018).

Columns and labels:
Format in all cases: in vivo
[1] = system: Italian ryegrass (Lolium multiflorum); experiment: Test B pre-/postemergence plant response
In short: (§1)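 Seeds in loam–sand blend given preemergence soil spray; separately, plants at one- to two-leaf stage (2–10 cm) sprayed postemergence, compounds in non-phytotoxic solvent with surfactant. Injury rated visually versus untreated controls after ~10 days in greenhouse, 0 (no effect) to 100 (complete control).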

[2] = system: barnyardgrass (Echinochloa crus-galli); experiment: Test B pre-/postemergence plant response
In short: as §1

[3] = system: corn (Zea mays); experiment: Test B pre-/postemergence plant response
In short: as §1

[4] = system: giant foxtail (Setaria faberii); experiment: Test B pre-/postemergence plant response
In short: as §1

[5] = system: kochia (Kochia scoparia); experiment: Test B pre-/postemergence plant response
In short: as §1

[6] = system: pigweed (Amaranthus retroflexus); experiment: Test B pre-/postemergence plant response
In short: as §1

[7] = system: ragweed (common ragweed, Ambrosia elatior); experiment: Test B pre-/postemergence plant response
In short: as §1

[8] = system: wheat (Triticum aestivum); experiment: Test B pre-/postemergence plant response
In short: as §1

[9] = system: blackgrass (Alopecurus myosuroides); experiment: Test B postemergence plant response
In short: (§2)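 Weeds grown in loam soil/sand pots were sprayed postemergence at 2 to 10 cm height, one- to two-leaf stage. After approximately 10 days in greenhouse, injury was rated visually against untreated controls on a 0 (no effect) to 100 (complete control) scale; dash means no test result.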

[10] = system: galium (catchweed bedstraw, Galium aparine); experiment: Test B postemergence plant response
In short: as §2

[11] = system: barnyardgrass (Echinochloa crus-galli); experiment: Test C flooded paddy test plant response; details: Flood, 250 g ai/ha; scale of 0 to 100 where 0 is no effect and 100 is complete control; 13 to 15 days
In short: (§3)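 Scale 0 (no effect) to 100 (complete control), assigned visually versus controls after 13–15 d greenhouse. Application: directly to paddy water, 3 cm flood depth kept constant, 2-leaf stage.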

[12] = system: ducksalad (Heteranthera limosa); experiment: Test C flooded paddy test plant response; details: Flood, 250 g ai/ha; scale of 0 to 100 where 0 is no effect and 100 is complete control; 13 to 15 days
In short: as §3

[13] = system: rice (Oryza sativa); experiment: Test C flooded paddy test plant response; details: Flood, 250 g ai/ha; scale of 0 to 100 where 0 is no effect and 100 is complete control; 13 to 15 days
In short: as §3

[14] = system: small-flower umbrella sedge (Cyperus difformis); experiment: Test C flooded paddy test plant response; details: Flood, 250 g ai/ha; scale of 0 to 100 where 0 is no effect and 100 is complete control; 13 to 15 days
In short: as §3

[15] = 31 g ai/ha, Preemergence, 0 to 100 scale where 0 is no effect and 100 is complete control
[16] = 125 g ai/ha, postemergence, 0 to 100 scale, 0 no effect, 100 complete control
[17] = Preemergence, 125 g ai/ha, 0 to 100 scale (0 no effect, 100 complete control)
[18] = 31 g ai/ha, Postemergence, 0 to 100 scale, 0 no effect, 100 complete control
[19] = Postemergence, 31 g ai/ha, 0 to 100 scale (0 no effect, 100 complete control)
[20] = Postemergence, 500 g ai/ha, 0 to 100 scale (0 no effect, 100 complete control)
[21] = Preemergence, 500 g ai/ha, 0 to 100 scale where 0 is no effect and 100 is complete control

FC(F)(F)COCc1cc(-c2ccccc2Oc2ncc(Cl)cn2)on1 [Compound 128]
Plant response rating, Ryegrass, Italian [1, 15]: 0 | Plant response rating, Ryegrass, Italian [1, 16]: 0 | Ryegrass, Italian plant response rating [1, 17]: 0 | Plant response rating, Barnyardgrass [2, 18]: 0 | Plant response rating, Barnyardgrass [2, 15]: 0 | Plant response rating, Barnyardgrass [2, 16]: 10 | Barnyardgrass plant response rating [2, 17]: 0 | Plant response rating, Corn [3, 18]: 0 | Plant response rating, Corn [3, 16]: 10 | Plant response rating, Foxtail, Giant [4, 18]: 0 | Plant response rating, Foxtail, Giant [4, 15]: 0 | Plant response rating, Foxtail, Giant [4, 16]: 10 | Foxtail, Giant plant response rating [4, 17]: 10 | Plant response rating, Kochia [5, 15]: 0 | Plant response rating, Kochia [5, 16]: 50 | Kochia plant response rating [5, 17]: 0 | Plant response rating, Pigweed [6, 15]: 0 | Plant response rating, Pigweed [6, 16]: 60 | Pigweed plant response rating [6, 17]: 40 | Plant response rating, Ragweed [7, 15]: 0 | Plant response rating, Ragweed [7, 16]: 10 | Ragweed plant response rating [7, 17]: 0 | Plant response rating, Wheat [8, 16]: 0 | Plant response rating, Blackgrass [9, 18]: 0 | Plant response rating, Blackgrass [9, 16]: 20 | Plant response rating, Galium [10, 16]: 30 | Barnyardgrass plant response rating [11]: 0 | Ducksalad plant response rating [12]: 0 | Rice plant response rating [13]: 0 | Sedge, Umbrella plant response rating [14]: 0

Cn1nc(-c2c(Br)cccc2Oc2ncc(Cl)cn2)cc1C(F)(F)F [Compound 147]
Plant response rating, Ryegrass, Italian [1, 15]: 0 | Plant response rating, Ryegrass, Italian [1, 16]: 0 | Plant response rating, Ryegrass, Italian [1, 19]: 0 | Ryegrass, Italian plant response rating [1, 17]: 0 | Plant response rating, Barnyardgrass [2, 15]: 0 | Plant response rating, Barnyardgrass [2, 16]: 0 | Plant response rating, Barnyardgrass [2, 19]: 0 | Barnyardgrass plant response rating [2, 17]: 0 | Plant response rating, Corn [3, 16]: 0 | Plant response rating, Corn [3, 19]: 0 | Plant response rating, Foxtail, Giant [4, 15]: 0 | Plant response rating, Foxtail, Giant [4, 16]: 0 | Plant response rating, Foxtail, Giant [4, 19]: 0 | Foxtail, Giant plant response rating [4, 17]: 0 | Plant response rating, Kochia [5, 15]: 0 | Plant response rating, Kochia [5, 16]: 0 | Plant response rating, Kochia [5, 19]: 0 | Kochia plant response rating [5, 17]: 0 | Plant response rating, Pigweed [6, 15]: 0 | Plant response rating, Pigweed [6, 16]: 0 | Plant response rating, Pigweed [6, 19]: 0 | Pigweed plant response rating [6, 17]: 0 | Plant response rating, Ragweed [7, 15]: 0 | Plant response rating, Ragweed [7, 16]: 0 | Plant response rating, Ragweed [7, 19]: 0 | Ragweed plant response rating [7, 17]: 0 | Plant response rating, Wheat [8, 16]: 0 | Plant response rating, Wheat [8, 19]: 0 | Plant response rating, Blackgrass [9, 16]: 0 | Plant response rating, Blackgrass [9, 19]: 0 | Plant response rating, Galium [10, 16]: 0 | Plant response rating, Galium [10, 19]: 0 | Barnyardgrass plant response rating [11]: 0 | Ducksalad plant response rating [12]: 0 | Rice plant response rating [13]: 0 | Sedge, Umbrella plant response rating [14]: 0

Cn1ccnc1-c1ccccc1Oc1ncc(Br)cn1 [Compound 152]
Plant response rating, Ryegrass, Italian [1, 16]: 0 | Plant response rating, Ryegrass, Italian [1, 20]: 0 | Ryegrass, Italian plant response rating [1, 17]: 0 | Plant response rating, Ryegrass, Italian [1, 21]: 0 | Plant response rating, Barnyardgrass [2, 16]: 0 | Plant response rating, Barnyardgrass [2, 20]: 0 | Barnyardgrass plant response rating [2, 17]: 0 | Plant response rating, Barnyardgrass [2, 21]: 0 | Plant response rating, Corn [3, 16]: 0 | Plant response rating, Corn [3, 20]: 0 | Plant response rating, Foxtail, Giant [4, 16]: 0 | Plant response rating, Foxtail, Giant [4, 20]: 0 | Foxtail, Giant plant response rating [4, 17]: 0 | Plant response rating, Foxtail, Giant [4, 21]: 0 | Plant response rating, Kochia [5, 16]: 0 | Plant response rating, Kochia [5, 20]: 0 | Kochia plant response rating [5, 17]: 0 | Plant response rating, Kochia [5, 21]: 0 | Plant response rating, Pigweed [6, 16]: 0 | Plant response rating, Pigweed [6, 20]: 0 | Pigweed plant response rating [6, 17]: 0 | Plant response rating, Pigweed [6, 21]: 0 | Plant response rating, Ragweed [7, 16]: 0 | Plant response rating, Ragweed [7, 20]: 0 | Ragweed plant response rating [7, 17]: 0 | Plant response rating, Ragweed [7, 21]: 0 | Plant response rating, Wheat [8, 16]: 0 | Plant response rating, Wheat [8, 20]: 0 | Plant response rating, Blackgrass [9, 16]: 0 | Plant response rating, Blackgrass [9, 20]: 0 | Plant response rating, Galium [10, 16]: 0 | Plant response rating, Galium [10, 20]: 0 | Barnyardgrass plant response rating [11]: 0 | Ducksalad plant response rating [12]: 0 | Rice plant response rating [13]: 0 | Sedge, Umbrella plant response rating [14]: 0

Cn1nc(-c2ccccc2Oc2ncc(Cl)cn2)cc1C(F)(F)F [Compound 237]
Plant response rating, Ryegrass, Italian [1, 15]: 0 | Plant response rating, Ryegrass, Italian [1, 16]: 0 | Plant response rating, Ryegrass, Italian [1, 19]: 0 | Ryegrass, Italian plant response rating [1, 17]: 0 | Plant response rating, Barnyardgrass [2, 15]: 0 | Plant response rating, Barnyardgrass [2, 16]: 0 | Plant response rating, Barnyardgrass [2, 19]: 0 | Barnyardgrass plant response rating [2, 17]: 0 | Plant response rating, Corn [3, 16]: 0 | Plant response rating, Corn [3, 19]: 0 | Plant response rating, Foxtail, Giant [4, 15]: 0 | Plant response rating, Foxtail, Giant [4, 16]: 0 | Plant response rating, Foxtail, Giant [4, 19]: 0 | Foxtail, Giant plant response rating [4, 17]: 0 | Plant response rating, Kochia [5, 15]: 0 | Plant response rating, Kochia [5, 16]: 0 | Plant response rating, Kochia [5, 19]: 0 | Kochia plant response rating [5, 17]: 0 | Plant response rating, Pigweed [6, 15]: 0 | Plant response rating, Pigweed [6, 16]: 0 | Plant response rating, Pigweed [6, 19]: 0 | Pigweed plant response rating [6, 17]: 0 | Plant response rating, Ragweed [7, 15]: 0 | Plant response rating, Ragweed [7, 16]: 0 | Plant response rating, Ragweed [7, 19]: 0 | Ragweed plant response rating [7, 17]: 0 | Plant response rating, Wheat [8, 16]: 0 | Plant response rating, Wheat [8, 19]: 0 | Plant response rating, Blackgrass [9, 16]: 0 | Plant response rating, Blackgrass [9, 19]: 0 | Plant response rating, Galium [10, 16]: 0 | Plant response rating, Galium [10, 19]: 0 | Barnyardgrass plant response rating [11]: 0 | Ducksalad plant response rating [12]: 0 | Rice plant response rating [13]: 0 | Sedge, Umbrella plant response rating [14]: 0
